Our source for the IC50 values is patent US20260166039A1 (SCHRÖDINGER, INC., priority 2022, published 2026).

Read-outs that look alike come from different tables or passages of the source.

The target of one assay is T1, Wee1 kinase domain (Homo sapiens, UniProt P30291).
T1 construct: Wee1 kinase domain was purchased from Carna (catalog #05-177); purchased Carna 05-177
In words: Wee1 Kinase Biochemical Assay (ADP-Glo). To be noted: 15 uM ATP. In short, it runs like this:
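Compounds tested against 1 nM Wee1 kinase domain in Tris buffer containing 20 mM MgCl2, BSA and 2 mM DTT, with 15 uM ATP and poly(Lys,Tyr) substrate for 4 h at 25 °C. Luminescent ADP detection gave percent inhibition, normalized to DMSO and saturating inhibitor.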

The subject of assay [1] is phosphorylation of Cdc2 Y15 (Wee1 substrate) in A427 cells. The assay can be described thus: Phosphorylated Cdc2 MSD Electrochemiluminescence Assay. It is filed as cell-based. To be noted: Homo sapiens. In short, it runs like this:
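Read-out: percent residual phospho-Cdc2 Y15 relative to DMSO and positive-control Wee1 inhibitor, measured by MSD electrochemiluminescence capture/detection antibody assay in cell lysates. A427 cells received duplicate 3-fold compound dilution series 20 h post-seeding, with 6 h total incubation at 37 °C.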

Where [2] appears, read: class symbols, 1 nM Wee1 enzyme, 4 hours at 25° C.
[3] abbreviates: A-427, class symbols, read-out: A427 pCDC2 MSD IC50.

T1 sequence (P30291 299-569 limits assumed): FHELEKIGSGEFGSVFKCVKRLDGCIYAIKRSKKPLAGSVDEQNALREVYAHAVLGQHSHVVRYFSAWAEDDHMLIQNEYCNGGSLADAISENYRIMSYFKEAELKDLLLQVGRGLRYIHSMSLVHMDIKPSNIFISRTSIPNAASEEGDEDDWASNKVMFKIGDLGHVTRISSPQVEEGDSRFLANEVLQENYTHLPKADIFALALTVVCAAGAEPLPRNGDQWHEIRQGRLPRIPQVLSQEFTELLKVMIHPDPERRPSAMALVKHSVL

Regarding `C[C@H]1COC(=O)N1c1cccc(N2c3nc(Nc4ccc([C@H]5CCNC5)cc4)ncc3[C@@]3(C)COC(C)(C)C[C@@H]23)n1` (single isomer, unassigned) [Example 279], the IC50 at Wee1 kinase domain (Wee1 kinase domain, ADP-Glo) was less than 10 nM; in assay [1] (A-427, pCDC2 MSD), 100 to 1000 nM.
Take `CC1(C)C[C@H]2N(c3cccc(N=S(C)(C)=O)n3)c3nc(Nc4ccnnc4)ncc3[C@@]2(C)CO1` (single isomer, unassigned) [Example 799]: the 50% inhibitory concentration (IC50) at Wee1 kinase domain (setting [2]) is less than 10 nM; in assay [1] (setting [3]), 1000 to 10000 nM.
`CN1CCC[C@H]1c1ccc(Nc2ncc3c(n2)N(c2cccc(N=S(C)(C)=O)n2)[C@@H]2CC(C)(C)OC[C@]32C)cn1` (single isomer, unassigned) [Example 216]: the IC50 is less than 10 nM against Wee1 kinase domain (Wee1 kinase domain, ADP-Glo) and 100 to 1000 nM in assay [1] (A-427, pCDC2 MSD).
`C[C@H]1COC(=O)N1c1cccc(N2c3nc(Nc4ccc(N5CCNCC5)cc4)ncc3[C@@]3(C)COC(C)(C)C[C@@H]23)n1` (single isomer, unassigned) [Example 260]: the 50% inhibitory concentration (IC50) against Wee1 kinase domain (Wee1 kinase domain, ADP-Glo) was less than 10 nM; in assay [1] (A-427, pCDC2 MSD), 100 to 1000 nM.
Take `CC1(C)C[C@H]2N(c3cccc(N4CCOC4=O)n3)c3nc(Nc4ccc([C@@H]5CNCC5(F)F)cc4)ncc3[C@@]2(C)CO1` [Example 680, 3-(6-((4bR,8aR)-2-((4-((R)-4,4-difluoropyrrolidin-3-yl)phenyl)amino)-4b,7,7-trimethyl-4b,7,8,8a-tetrahydropyrano[3′,4′:4,5]pyrrolo[2,3-d]pyrimidin-9(5H)-yl)pyridin-2-yl)oxazolidin-2-one]: the IC50 at Wee1 kinase domain (setting [2]) was less than 10 nM; in assay [1] (setting [3]), 100 to 1000 nM.
In the same order, the values of `CNCc1cccc(N2c3nc(Nc4ccc(N5CCOC[C@H]5C)cc4)ncc3[C@@]3(C)COC(C)(C)C[C@@H]23)n1` (single isomer, unassigned) [Example 473] are less than 10 nM and 100 to 1000 nM.
For `C[C@H]1CN(c2ccc(Nc3ncc4c(n3)N(c3cccc(N5C(=O)OC[C@@H]5C)n3)[C@@H]3CC(C)(C)OC[C@]43C)cc2)CCN1C` (single isomer, unassigned) [Example 315], the IC50 against Wee1 kinase domain (Wee1 kinase domain, ADP-Glo) was less than 10 nM; in assay [1] (A-427, pCDC2 MSD), 100 to 1000 nM.
Regarding `CN1C[C@@H]2CN(c3ccc(Nc4ncc5c(n4)N(c4cccc(N6CCOC6=O)n4)[C@@H]4CC(C)(C)OC[C@]54C)cc3)C[C@@H]2C1` [Example 692, 3-(6-((4bR,8aR)-4b,7,7-trimethyl-2-((4-((3aR,6aS)-5-methylhexahydropyrrolo[3,4-c]pyrrol-2(1H)-yl)phenyl)amino)-4b,7,8,8a-tetrahydropyrano[3′,4′:4,5]pyrrolo[2,3-d]pyrimidin-9(5H)-yl)pyridin-2-yl)oxazolidin-2-one], the IC50 against Wee1 kinase domain (setting [2]) is less than 10 nM; in assay [1] (setting [3]), 100 to 1000 nM.
On the same counts, the results for `CN1CCN(c2cccc(Nc3ncc4c(n3)N(c3cccc(N=S(C)(C)=O)n3)[C@@H]3CC(C)(C)OC[C@]43C)c2)CC1` (single isomer, unassigned) [Example 486] are less than 10 nM and less than 100 nM.
On the same counts, the results for `C[C@H]1COC(=O)N1c1cccc(N2c3nc(Nc4ccc(N5CCN(C)CC5)cc4)ncc3[C@@]3(C)COCC[C@@H]23)n1` (single isomer, unassigned) [Example 702] are less than 10 nM and 100 to 1000 nM.
On the same counts, the results for `CN1CC[C@H](c2ccc(Nc3ncc4c(n3)N(c3cccc(N5CCCC5=O)n3)[C@@H]3CC(C)(C)OC[C@]43C)cc2)C1` [Example 634, 1-(6-((4bR,8aR)-4b,7,7-trimethyl-2-((4-((R)-1-methylpyrrolidin-3-yl)phenyl)amino)-4b,7,8,8a-tetrahydropyrano[3′,4′:4,5]pyrrolo[2,3-d]pyrimidin-9(5H)-yl)pyridin-2-yl)pyrrolidin-2-one] are less than 10 nM and 100 to 1000 nM.
As to `CN1C[C@H]2C[C@@H]1CN2c1ccc(Nc2ncc3c(n2)N(c2cccc(N4CCOC4=O)n2)[C@@H]2CC(C)(C)OC[C@]32C)cc1F` [Example 668, 3-(6-((4bR,8aR)-2-((3-fluoro-4-((1R,4R)-5-methyl-2,5-diazabicyclo[2.2.1]heptan-2-yl)phenyl)amino)-4b,7,7-trimethyl-4b,7,8,8a-tetrahydropyrano[3′,4′:4,5]pyrrolo[2,3-d]pyrimidin-9(5H)-yl)pyridin-2-yl)oxazolidin-2-one], the IC50 against Wee1 kinase domain (setting [2]) is less than 10 nM; in assay [1] (setting [3]), 100 to 1000 nM.
As to `CNCc1cccc(N2c3nc(Nc4cnn(C(C)(C)C)c4)ncc3[C@@]3(C)COC(C)(C)C[C@@H]23)n1` (single isomer, unassigned) [Example 48], the IC50 on Wee1 kinase domain (Wee1 kinase domain, ADP-Glo) was less than 10 nM; in assay [1] (A-427, pCDC2 MSD), less than 100 nM.
As to `CN1CCCN(c2ccc(Nc3ncc4c(n3)N(c3cccc(N=S(C)(C)=O)n3)[C@@H]3CC(C)(C)OC[C@]43C)cc2)CC1` (single isomer, unassigned) [Example 501], the IC50 against Wee1 kinase domain (setting [2]) was less than 10 nM; in assay [1] (setting [3]) it was less than 100 nM.
On to `C[C@H]1COC(=O)N1c1cccc(N2c3nc(Nc4ccc(N5CC6(CN(C)C6)C5)cc4)ncc3[C@@]3(C)COC(C)(C)C[C@@H]23)n1` (single isomer, unassigned) [Example 355], for which the IC50 is less than 10 nM against Wee1 kinase domain (Wee1 kinase domain, ADP-Glo) and 100 to 1000 nM in assay [1] (A-427, pCDC2 MSD).
On the same counts, the results for `C[C@H]1COC(=O)N1c1cccc(N2c3nc(Nc4ccc(N5CCN(C)CC5=O)cc4)ncc3[C@@]3(C)COC(C)(C)C[C@@H]23)n1` (single isomer, unassigned) [Example 271] are less than 10 nM and 100 to 1000 nM.
As to `CC1(C)C[C@H]2N(c3ccc4c(n3)[C@](C)(N)CC4)c3nc(Nc4ccc(N5CCOCC5)cc4)ncc3[C@@]2(C)CO1` (single isomer, unassigned) [Example 564], the IC50 against Wee1 kinase domain (setting [2]) is less than 10 nM; in assay [1] (setting [3]), less than 100 nM.
In the same order, the values of `CN1C[C@H]2C[C@@H]1CN2c1ccc(Nc2ncc3c(n2)N(c2cccc(C(C)(C)O)n2)[C@@H]2CC(C)(C)OC[C@]32C)cc1` (single isomer, unassigned) [Example 413] are less than 10 nM and 100 to 1000 nM.
In the same order, the values of `CN1CC[C@@H](c2ccc(Nc3ncc4c(n3)N(c3cccc(N5CCCC5=O)n3)[C@@H]3CC(C)(C)OC[C@]43C)cc2)C1` [Example 642, 1-(6-((4bR,8aR)-4b,7,7-trimethyl-2-((4-((S)-1-methylpyrrolidin-3-yl)phenyl)amino)-46,7,8,8a-tetrahydropyrano[3′,4′:4,5]pyrrolo[2,3-d]pyrimidin-9(5H)-yl)pyridin-2-yl)pyrrolidin-2-one] are less than 10 nM and 100 to 1000 nM.
On the same counts, the results for `CN1CC[C@@H]2CN(c3ccc(Nc4ncc5c(n4)N(c4cccc(N6CCOC6=O)n4)[C@@H]4CC(C)(C)OC[C@]54C)cc3)C[C@@H]21` [Example 705, 3-(6-((4bR,8aR)-4b,7,7-trimethyl-2-((4-((3aR,6aR)-1-methylhexahydropyrrolo[3,4-b]pyrrol-5(1H)-yl)phenyl)amino)-4b,7,8,8a-tetrahydropyrano[3′,4′:4,5]pyrrolo[2,3-d]pyrimidin-9(5H)-yl)pyridin-2-yl)oxazolidin-2-one] are less than 10 nM and 100 to 1000 nM.
Turning to `CC[C@@]1(O)CCc2ccc(N3c4nc(Nc5ccn(C6CCN(C)CC6)c(=O)c5)ncc4[C@@]4(C)COC(C)(C)C[C@@H]34)nc21` [Example 812, 4-(((4bR,8aR)-9-((R)-7-ethyl-7-hydroxy-6,7-dihydro-5H-cyclopenta[b]pyridin-2-yl)-4b,7,7-trimethyl-4b,5,7,8,8a,9-hexahydropyrano[3′,4′:4,5]pyrrolo[2,3-d]pyrimidin-2-yl)amino)-1-(1-methylpiperidin-4-yl)pyridin-2(1H)-one], the IC50 was less than 10 nM on Wee1 kinase domain (1 nM Wee1 enzyme, 4 hours at 25° C) and 100 to 1000 nM in assay [1] (A-427, read-out: A427 pCDC2 MSD IC50).
For `Cc1cc(Nc2ncc3c(n2)N(c2cccc(N4C(=O)OC[C@@H]4C)n2)[C@@H]2CC(C)(C)OC[C@]32C)ccc1[C@@H]1CCNC1` (single isomer, unassigned) [Example 269], the IC50 is less than 10 nM against Wee1 kinase domain (Wee1 kinase domain, ADP-Glo) and 100 to 1000 nM in assay [1] (A-427, pCDC2 MSD).
On the same counts, the results for `CNCc1cccc(N2c3nc(Nc4ccc(C(C)(C)C(=O)N(C)C)cc4)ncc3[C@@]3(C)COC(C)(C)C[C@@H]23)n1` (single isomer, unassigned) [Example 76] are less than 10 nM and 100 to 1000 nM.
Turning to `CNC(=O)c1ccc(Nc2ncc3c(n2)N(c2cccc(N=S(C)(C)=O)n2)[C@@H]2CC(C)(C)OC[C@]32C)cc1F` [Example 119, 4-(((4bR,8aR)-9-(6-((dimethyl(oxo)-16-sulfaneylidene)amino)pyridin-2-yl)-4b,7,7-trimethyl-4b,5,7,8,8a,9-hexahydropyrano[3′,4′:4,5]pyrrolo[2,3-d]pyrimidin-2-yl)amino)-2-fluoro-N-methylbenzamide], the half-maximal inhibitory concentration (IC50) on Wee1 kinase domain (Wee1 kinase domain, ADP-Glo) was less than 10 nM; in assay [1] (A-427, pCDC2 MSD) it was 100 to 1000 nM.
In the same order, the values of `C[C@H]1COC(=O)N1c1cccc(N2c3nc(Nc4ccc(N5CCN(C)CC5)cc4)ncc3[C@]3(C)COC(C)(C)C[C@H]23)n1` (single isomer, unassigned) [Example 235] are less than 10 nM and 100 to 1000 nM.
Consider `C[C@H]1COC(=O)N1c1cccc(N2c3nc(Nc4ccc(O[C@@H]5CCNC5)nc4)ncc3[C@@]3(C)COC(C)(C)C[C@@H]23)n1` (single isomer, unassigned) [Example 287], for which the half-maximal inhibitory concentration (IC50) against Wee1 kinase domain (Wee1 kinase domain, ADP-Glo) was less than 10 nM; in assay [1] (A-427, pCDC2 MSD) it was 100 to 1000 nM.
